Consider 3 compounds from ChEMBL document CHEMBL1126366, “Design & synthesis of a novel EPSP synthase inhibitor based on its ternary complex with shikimate-3-phosphate and glyphosate” (Bioorg Med Chem Lett, 1992).

The target of assay [1] is T1, 3-phosphoshikimate 1-carboxyvinyltransferase (Escherichia coli K-12, UniProt P0A6D3).
T1 sequence (P0A6D3 whole entry): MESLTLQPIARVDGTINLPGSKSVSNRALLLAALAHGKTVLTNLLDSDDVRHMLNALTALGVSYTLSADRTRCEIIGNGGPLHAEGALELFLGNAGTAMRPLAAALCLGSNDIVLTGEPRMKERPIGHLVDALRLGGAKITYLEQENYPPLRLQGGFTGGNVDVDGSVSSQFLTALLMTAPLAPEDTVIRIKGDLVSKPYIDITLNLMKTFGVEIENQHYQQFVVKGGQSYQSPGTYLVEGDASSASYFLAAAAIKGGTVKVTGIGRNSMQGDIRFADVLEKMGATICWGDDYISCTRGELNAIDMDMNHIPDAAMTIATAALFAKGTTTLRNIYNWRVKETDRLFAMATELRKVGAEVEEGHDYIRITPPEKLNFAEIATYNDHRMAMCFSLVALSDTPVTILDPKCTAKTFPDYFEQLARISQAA
Kind of assay: Dissociation constant of the at EPSP synthase was determined.

The target in assay [2] is T1, 3-phosphoshikimate 1-carboxyvinyltransferase. Kind of assay: Inhibition of the EPSP synthase PEP-Pi site by the compound expressed as apparent value.
Assay [3] shares this target. Kind of assay: Inhibition of the EPSP synthase by the compound expressed as weak apparent value.
For assay [4] the target is unchanged. Description: Inhibition of EPSP synthase PEP-Pi site by the compound was expressed as apparent value.
For assay [5] the target is unchanged. Kind of assay: Dissociation constant against EPSP synthase.
For assay [6] the target is unchanged. Kind of assay: Potency against EPSP synthase.

Molecules are shown by their SMILES.

By Kd is commonly meant a measure of binding affinity in units of concentration. A high value points to weaker binding. In assay [1], `O=C(O)CN(CP(=O)(O)O)[C@@H]1CC(C(=O)O)=C[C@@H](OP(=O)(O)O)[C@H]1O` registered a Kd of 8 µM. For the same compound, the Ki stood at 13 µM in assay [2] and 7.4 µM in assay [3].

Turning to `C[C@@](O[C@@H]1CC(C(=O)O)=C[C@@H](OP(=O)(O)O)[C@H]1O)(C(=O)O)P(=O)(O)O`, the figures for the Ki in assay [4] and in assay [6] were 0.00011 µM and 0.015 µM, respectively. For the same compound, the dissociation constant (Kd) in assay [5] amounted to 0.015 µM.

As for `N[C@@H]1CC(C(=O)O)=C[C@@H](OP(=O)(O)O)[C@H]1O`, the Ki in assay [6] was 85 µM.
